Measurements: ChEMBL document CHEMBL3867482, “Design and synthesis of water soluble β-aminosulfone analogues of SCH 900229 as γ-secretase inhibitors” (Bioorg Med Chem Lett, 2016)
pIC50: −log10 of the molar value. Values after ≈ are worked out from the molar mass of the structure shown.

What was measured:
[1] = Selectivity ratio of IC50 for human gamma secretase PS2 (1 to 467 residues) expressed in baculovirus infected sf9 cells co-expressing aph-1a to IC50 for gamma secretase PS1 (1 to 448 residues) expressed in baculovirus infected sf9 cells co-expressing aph-1a
[2] = Inhibition of gamma-secretase in HEK293 cell membranes expressing human APP Swedish/London double mutant assessed as reduction in amyloid beta 40 formation after 1 hr by electrochemiluminescence based immunoassay
[3] = tested on: Mus musculus; test: Antialzheimer activity in B6C3F1 mouse assessed as amyloid beta 40 level in cortex at 10 mg/kg, po administered as single dose after 3 hrs relative to control; format: functional
[4] = molecular target: Cytochrome P450 2C9 (Homo sapiens, UniProt P11712); test: Inhibition of CYP2C9 in human liver microsomes after 30 secs by LC/MS/MS analysis; format: ADME
Cytochrome P450 2C9, sequence (P11712 whole entry): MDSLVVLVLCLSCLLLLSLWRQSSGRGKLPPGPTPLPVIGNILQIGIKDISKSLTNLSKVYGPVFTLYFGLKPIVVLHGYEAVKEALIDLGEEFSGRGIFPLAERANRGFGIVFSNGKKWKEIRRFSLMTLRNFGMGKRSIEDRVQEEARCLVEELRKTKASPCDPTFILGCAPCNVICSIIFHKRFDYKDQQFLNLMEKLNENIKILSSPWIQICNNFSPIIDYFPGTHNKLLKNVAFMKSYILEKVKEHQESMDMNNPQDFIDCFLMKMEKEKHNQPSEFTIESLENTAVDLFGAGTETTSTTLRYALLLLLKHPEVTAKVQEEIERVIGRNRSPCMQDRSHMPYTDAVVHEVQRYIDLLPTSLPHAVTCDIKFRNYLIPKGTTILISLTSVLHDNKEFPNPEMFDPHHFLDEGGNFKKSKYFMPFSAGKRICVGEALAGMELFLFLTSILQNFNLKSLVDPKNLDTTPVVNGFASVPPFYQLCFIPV

[5] = AUC (0 to 6 hrs) in mouse at 10 mg/kg, po by LC/MS/MS analysis; format: ADME, organism-based; design: time < 6 hr, dose 10 mg/kg, route oral; conditions: in vivo
[6] = Clearance in rat hepatocytes assessed per million cells by HPLC/atmospheric pressure chemical ionization/MS analysis; format: ADME, cell-based, Hepatocyte; conditions: read-out: CLH
[7] = Clearance in monkey hepatocytes assessed per million cells by HPLC/atmospheric pressure chemical ionization/MS analysis; format: ADME, cell-based, Macaca mulatta, Hepatocyte; conditions: rhesus monkey, read-out: CLH
[8] = molecular target: T1, Cytochrome P450 3A4 (Homo sapiens, UniProt P08684); test: Inhibition of CYP3A4 in human liver microsomes preincubated for 30 mins after 30 secs by LC/MS/MS analysis; format: ADME
T1 sequence (P08684 whole entry): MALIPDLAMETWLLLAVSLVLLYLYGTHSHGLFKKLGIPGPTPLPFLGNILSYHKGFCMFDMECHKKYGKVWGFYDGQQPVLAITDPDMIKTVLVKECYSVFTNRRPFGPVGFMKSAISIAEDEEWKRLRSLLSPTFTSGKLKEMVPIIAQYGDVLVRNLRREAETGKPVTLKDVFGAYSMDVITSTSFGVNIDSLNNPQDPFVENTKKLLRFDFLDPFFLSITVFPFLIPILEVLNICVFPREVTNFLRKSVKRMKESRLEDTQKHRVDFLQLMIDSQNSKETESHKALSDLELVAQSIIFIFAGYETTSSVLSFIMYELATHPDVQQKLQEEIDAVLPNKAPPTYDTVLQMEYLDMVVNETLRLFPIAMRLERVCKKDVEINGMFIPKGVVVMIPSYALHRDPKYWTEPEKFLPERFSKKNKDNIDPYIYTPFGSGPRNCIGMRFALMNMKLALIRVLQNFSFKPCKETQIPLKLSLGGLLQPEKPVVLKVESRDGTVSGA

[9] = tested on: Mus musculus; test: Antialzheimer activity in B6C3F1 mouse assessed as amyloid beta 40 level in plasma at 10 mg/kg, po administered as single dose after 3 hrs relative to control; format: functional
[10] = Clearance in dog hepatocytes assessed per million cells by HPLC/atmospheric pressure chemical ionization/MS analysis; format: ADME, cell-based, Canis lupus familiaris, Hepatocyte; conditions: read-out: CLH
[11] = Kinetic solubility of compound; format: physicochemical; conditions: read-out: Kinetic_solubility
[12] = molecular target: Cytochrome P450 2D6 (Homo sapiens, UniProt P10635); test: Inhibition of CYP2D6 in human liver microsomes after 30 secs by LC/MS/MS analysis; format: ADME
Cytochrome P450 2D6, sequence (P10635 whole entry): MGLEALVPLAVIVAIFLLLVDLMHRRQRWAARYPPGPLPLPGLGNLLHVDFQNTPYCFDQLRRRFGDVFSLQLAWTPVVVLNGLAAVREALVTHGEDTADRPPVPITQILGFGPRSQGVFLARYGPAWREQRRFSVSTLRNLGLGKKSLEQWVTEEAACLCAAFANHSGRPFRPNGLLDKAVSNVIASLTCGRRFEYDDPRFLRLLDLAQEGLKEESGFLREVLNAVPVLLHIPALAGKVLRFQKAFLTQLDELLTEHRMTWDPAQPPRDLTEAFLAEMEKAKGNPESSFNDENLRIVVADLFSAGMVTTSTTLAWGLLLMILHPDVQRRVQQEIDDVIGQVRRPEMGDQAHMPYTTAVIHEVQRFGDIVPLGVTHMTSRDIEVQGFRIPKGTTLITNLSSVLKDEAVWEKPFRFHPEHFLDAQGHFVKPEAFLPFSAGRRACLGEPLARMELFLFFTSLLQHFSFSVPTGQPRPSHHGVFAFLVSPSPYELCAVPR

[13] = Clearance in human hepatocytes assessed per million cells by HPLC/atmospheric pressure chemical ionization/MS analysis; format: ADME, cell-based, Hepatocyte; conditions: read-out: CLH
[14] = molecular target: T1, Cytochrome P450 3A4; test: Inhibition of CYP3A4 in human liver microsomes after 30 secs by LC/MS/MS analysis; format: ADME
[15] = Ratio of drug level in brain to plasma in mouse at 6 hrs; format: ADME, organism-based; conditions: brain and plasma, read-out: BPR

Structure (SMILES): O=S(=O)(CC[C@@H]1OCC[C@@]2(S(=O)(=O)c3ccc(Cl)cc3)c3c(F)ccc(F)c3OC[C@@H]12)[C@@H]1CCNC1 [listing 1 of 2 here]
- Ratio IC50 [1]: 21

Structure (SMILES): O=S(=O)(CC[C@@H]1OCC[C@@]2(S(=O)(=O)c3ccc(Cl)cc3)c3c(F)ccc(F)c3OC[C@@H]12)CCN1CCCC1
- Ratio IC50 [1]: 13
- pIC50 [2]: 8.96

Structure (SMILES): CN(C)CCS(=O)(=O)CC[C@@H]1OCC[C@@]2(S(=O)(=O)c3ccc(Cl)cc3)c3c(F)ccc(F)c3OC[C@@H]12
- Activity [3]: -45%
- Ratio IC50 [1]: 20
- pIC50 [4]: < 4.70
- AUC ([5]; 6 h, BLD = below limit of detection): Bld
- hepatocyte CLint [6]: 66.7 µL/min/1e6 cells
- hepatocyte CLint [7]: 65 µL/min/1e6 cells
- pIC50 [2]: 8.77
- pIC50 [8]: 5.05
- Activity [9]: -21%
- hepatocyte CLint [10]: 56.5 µL/min/1e6 cells
- solubility kinetic [11]: 50 µM (≈ 28.2 µg/mL)
- pIC50 [12]: < 4.70
- hepatocyte CLint [13]: 57.2 µL/min/1e6 cells
- pIC50 [14]: < 4.70

Structure (SMILES): O=S(=O)(CC[C@@H]1OCC[C@@]2(S(=O)(=O)c3ccc(Cl)cc3)c3c(F)ccc(F)c3OC[C@@H]12)CCN1CC[C@H](O)C1
- Ratio IC50 [1]: 12
- pIC50 [2]: 9.10

Structure (SMILES): O=S(=O)(CC[C@@H]1OCC[C@@]2(S(=O)(=O)c3ccc(Cl)cc3)c3c(F)ccc(F)c3OC[C@@H]12)C1CNC1
- pIC50 [2]: 8.89
- Activity [9]: -15%

Structure (SMILES): O=S(=O)(CC[C@@H]1OCC[C@@]2(S(=O)(=O)c3ccc(Cl)cc3)c3c(F)ccc(F)c3OC[C@@H]12)C[C@H]1CCCN1
- Ratio IC50 [1]: 23

Structure (SMILES): O=S(=O)(CC[C@@H]1OCC[C@@]2(S(=O)(=O)c3ccc(Cl)cc3)c3c(F)ccc(F)c3OC[C@@H]12)[C@@H]1CCNC1 [listing 2 of 2 here]
- Activity [3]: -73%
- Kp at 6 h [15]: 2
- pIC50 [4]: < 4.70
- AUC(0-t) at 6 h [5]: 1.17 µM·h
- hepatocyte CLint [6]: 13.9 µL/min/1e6 cells
- hepatocyte CLint [7]: 38.8 µL/min/1e6 cells
- pIC50 [2]: 8.29
- pIC50 [8]: 5.43
- Activity [9]: -90%
- hepatocyte CLint [10]: 17.9 µL/min/1e6 cells
- pIC50 [12]: < 4.70
- hepatocyte CLint [13]: 14.5 µL/min/1e6 cells
- pIC50 [14]: 5.21

Structure (SMILES): O=C(O)CS(=O)(=O)CC[C@@H]1OCC[C@@]2(S(=O)(=O)c3ccc(Cl)cc3)c3c(F)ccc(F)c3OC[C@@H]12
- Ratio IC50 [1]: 22
- pIC50 [2]: 8.57
- Activity [9]: 47%
- solubility kinetic [11]: > 200 µM

Structure (SMILES): Cl.O=S(=O)(CC[C@@H]1OCC[C@@]2(S(=O)(=O)c3ccc(Cl)cc3)c3c(F)ccc(F)c3OC[C@@H]12)[C@@H]1CCNC1
- solubility kinetic [11]: ≥ 200 µM

Structure (SMILES): CCNCCS(=O)(=O)CC[C@@H]1OCC[C@@]2(S(=O)(=O)c3ccc(Cl)cc3)c3c(F)ccc(F)c3OC[C@@H]12.Cl
- solubility kinetic [11]: ≥ 200 µM

Structure (SMILES): O=S(=O)(CCNC1CCC1)CC[C@@H]1OCC[C@@]2(S(=O)(=O)c3ccc(Cl)cc3)c3c(F)ccc(F)c3OC[C@@H]12
- pIC50 [2]: 8.70

Structure (SMILES): Cl.O=S(=O)(CC[C@@H]1OCC[C@@]2(S(=O)(=O)c3ccc(Cl)cc3)c3c(F)ccc(F)c3OC[C@@H]12)[C@H]1CCNC1
- solubility kinetic [11]: ≥ 200 µM

Structure (SMILES): O=S(=O)(CC[C@@H]1OCC[C@@]2(S(=O)(=O)c3ccc(Cl)cc3)c3c(F)ccc(F)c3OC[C@@H]12)CCN1CCOCC1
- Ratio IC50 [1]: 10
- pIC50 [2]: 8.43

Structure (SMILES): O=S(=O)(CC[C@@H]1OCC[C@@]2(S(=O)(=O)c3ccc(Cl)cc3)c3c(F)ccc(F)c3OC[C@@H]12)C[C@@H]1CCCN1 [listing 1 of 2 here]
- Activity [3]: -48%
- Kp at 6 h [15]: 0.6
- pIC50 [4]: < 4.70
- AUC(0-t) at 6 h [5]: 0.674 µM·h
- hepatocyte CLint [6]: 15.2 µL/min/1e6 cells
- hepatocyte CLint [7]: 26.7 µL/min/1e6 cells
- pIC50 [2]: 9.15
- pIC50 [8]: 6.00
- Activity [9]: -57%
- hepatocyte CLint [10]: 12.5 µL/min/1e6 cells
- pIC50 [12]: < 4.70
- hepatocyte CLint [13]: 5.6 µL/min/1e6 cells
- pIC50 [14]: < 4.70

Structure (SMILES): O=S(=O)(CC[C@@H]1OCC[C@@]2(S(=O)(=O)c3ccc(Cl)cc3)c3c(F)ccc(F)c3OC[C@@H]12)CCN1CC[C@@H](O)C1
- Ratio IC50 [1]: 12
- pIC50 [2]: 9.22

Structure (SMILES): O=S(=O)(CC[C@@H]1OCC[C@@]2(S(=O)(=O)c3ccc(Cl)cc3)c3c(F)ccc(F)c3OC[C@@H]12)C[C@@H]1CCCN1 [listing 2 of 2 here]
- Ratio IC50 [1]: 14

Structure (SMILES): O=S(=O)(CC[C@@H]1OCC[C@@]2(S(=O)(=O)c3ccc(Cl)cc3)c3c(F)ccc(F)c3OC[C@@H]12)CC1=NCCN1
- pIC50 [4]: < 4.70
- AUC(0-t) at 6 h [5]: 0.057 µM·h
- hepatocyte CLint [6]: 25.9 µL/min/1e6 cells
- hepatocyte CLint [7]: 32 µL/min/1e6 cells
- pIC50 [2]: 8.23
- pIC50 [8]: 6.00
- Activity [9]: -86%
- hepatocyte CLint [10]: 20.1 µL/min/1e6 cells
- solubility kinetic [11]: 20 µM (≈ 11.5 µg/mL)
- pIC50 [12]: < 4.70
- hepatocyte CLint [13]: 13.7 µL/min/1e6 cells
- pIC50 [14]: 4.88

Structure (SMILES): CC(C)NCCS(=O)(=O)CC[C@@H]1OCC[C@@]2(S(=O)(=O)c3ccc(Cl)cc3)c3c(F)ccc(F)c3OC[C@@H]12
- Ratio IC50 [1]: 30
- pIC50 [2]: 9.30
